From ChEMBL document CHEMBL1126452, “Synthesis of stereochemically defined phosphonamidate-containing peptides: Inhibitors for the HIV-1 proteinase” (Bioorg Med Chem Lett, 1992)

target: Human immunodeficiency virus type 1 protease (Human immunodeficiency virus 1, UniProt Q72874); assay: Inhibitory concentration against HIV-1 Protease at pH 5.6 and at 37 degrees C

Structure (SMILES) | IC50 [µM]
CCC(C)[C@H](NC(=O)[C@@H]1CCCN1P(=O)(OC)[C@H](Cc1ccccc1)NC(=O)[C@H](CC(N)=O)NC(=O)OC(C)(C)C)C(=O)NCC(C)C (single isomer, unassigned; 2a) | 141
CCC(C)[C@H](NC(=O)[C@@H]1CCCN1P(=O)(OC)C(Cc1ccccc1)NC(=O)[C@H](CC(N)=O)NC(=O)OC(C)(C)C)C(=O)NCC(C)C (single isomer, unassigned) | 43.2
CCC(C)[C@H](NC(=O)[C@@H]1CCCN1P(=O)(OC)[C@H](Cc1ccccc1)NC(=O)[C@H](CC(N)=O)NC(=O)OC(C)(C)C)C(=O)NCC(C)C (single isomer, unassigned; 2d) | 134

Other lines, results leading:

IC50 [µM] | Structure (SMILES)
118 | CCC(C)[C@H](NC(=O)[C@@H]1CCCN1P(=O)(O)C(Cc1ccccc1)NC(=O)[C@H](CC(N)=O)NC(=O)OC(C)(C)C)C(=O)NCC(C)C (stereo not given in full)
576 | CCC(C)[C@H](NC(=O)[C@@H]1CCCN1P(=O)(OC)[C@@H](Cc1ccccc1)NC(=O)[C@H](CC(N)=O)NC(=O)OC(C)(C)C)C(=O)NCC(C)C (single isomer, unassigned)
